# Reference: publication PMC11855827, “High-Throughput Screening of Five Compound Libraries for Anthelmintic Activity and Toxicity Leads to the Discovery of Two Flavonoid Compounds” (International Journal of Molecular Sciences, 2025)
# Where two headings read alike, the source gives them in different places.
# Tests used:
# C. elegans [1] = assay: microbe, parasite or virus in culture; conditions: Caenorhabditis elegans
# C. elegans [2] = test system: C. elegans
# [3] = 0 h, read-out: Percentage of motility inhibition 0 h, Table S2, C. elegans SS assay, 110 μM, 0 h, averages of 4 data points
# [4] = 24 h, read-out: Percentage of motility inhibition 24 h, Table S2, C. elegans SS assay, 110 μM, 24 h, averages of 4 data points
# [5] = 0 h, read-out: Percentage of motility inhibition 0 h
# [6] = 24 h, read-out: Percentage of motility inhibition 24 h
# [7] = Table S2, C. elegans SS assay, 110 μM, 0 h, averages of 4 data points
# [8] = Table S2, C. elegans SS assay, 110 μM, 24 h, averages of 4 data points
Compound,inhibition at 110 µM (C. elegans [1]; [3]) [%],inhibition at 110 µM (C. elegans [1]; [4]) [%],also measured
CC=CC(=O)N(CC)c1ccccc1C (mixture of isomers) [Crotamiton],23,24,
OC[C@H]1O[C@@H](O[C@H]2[C@H](O)[C@@H](O)C(O)O[C@@H]2CO)[C@H](O)[C@@H](O)[C@H]1O (mixture of isomers) [Lactose],,,inhibition at 110 µM (C. elegans [1]; [5]): 54%; inhibition at 110 µM (C. elegans [1]; [6]): 10%
C=CC(C)(O)CCC=C(C)CCC=C(C)C (mixture of isomers) [Nerolidol],7,7,
COc1ccc([C@@H](O)CNC(=O)/C=C/c2ccccc2)cc1 (racemic) [Aegeline],4,6,
CSCCC(N)C(=O)O (racemic) [DL-Methionine],6,2,
O=c1ncnc2n([C@H]3O[C@@H](CO)[C@H](O)[C@@H]3O)[nH]cc1-2 (stereo in doubt) [Allopurinol riboside],0,0,
"COc1cc(OC)cc(OC)c1 [1,3,5‐Trimethoxybenzene]",1,25,
"CC(C)C12CCC(C)(CC1)O2 [1,4-Cineole]",21,35,
CCCCCCCCCCCCCCCCO [1-Hexadecanol],17,0,
OC[C@H]1NC[C@H](O)[C@@H](O)[C@@H]1O [1‐Deoxynojirimycin],0,1,
CCCCCCCCCCCCCCCCCCCCCCO [1‐Docosanol],33,25,
"Cc1cncc(C)n1 [2,6‐Dimethylpyrazine]",0,0,
CC(=O)c1ccc[nH]1 [2‐Acetylpyrrole],26,18,
O=c1[nH]c2ccccc2o1 [2‐Benzoxazolinone],24,6,
"c1ccc2c(Cc3c[nH]c4ccccc34)c[nH]c2c1 [3,3'‐Diindolylmethane]",0,7,
Cc1ccc2[nH]c3ccccc3c2c1 [3‐Methylcarbazole],0,29,
COc1c(-c2ccc(O)c(O)c2)oc2cc(O)cc(O)c2c1=O [3‐O‐Methylquercetin],3,16,
O=C(/C=C/c1ccccc1)c1ccc(O)cc1 [4'‐Hydroxychalcone],39,15,
COc1ccc(C(=O)/C=C/c2ccccc2)cc1 [4'‐Methoxychalcone],,,inhibition at 110 µM (C. elegans [1]; [5]): 0%; inhibition at 110 µM (C. elegans [1]; [6]): 5%
"COc1c(OC)c2nccc3c4ccccc4n(c1=O)c23 [4,5‐Dimethoxycanthin‐6‐one]",0,22,
Cc1cc(=O)oc2cc(O)ccc12 [4-Methylumbelliferone],4,3,
O=C(/C=C/c1ccc(O)cc1)c1ccccc1 [4‐Hydroxychalcone],0,1,

Compound,inhibition at 110 µM (C. elegans [1]; [3]) [%],inhibition at 110 µM (C. elegans [1]; [4]) [%],also measured
N[C@@H](Cc1c[nH]c2ccc(O)cc12)C(=O)O [5-Hydroxytryptophan],28,12,
O=c1cc(-c2ccccc2)oc2cccc(O)c12 [5‐Hydroxyflavone],12,21,
Oc1ccc2[nH]ccc2c1 [5‐Hydroxyindole],28,9,
O=c1cc(-c2ccccc2)oc2ccc(O)cc12 [6‐Hydroxyflavone],14,2,
O=c1cc(-c2ccccc2)oc2cc(O)ccc12 [7‐Hydroxyflavone],1,0,
CC(C)=CCc1c(O)c(CC=C(C)C)c2oc3c(O)cccc3c(=O)c2c1O [8‐Deoxygartanin],14,0,
Nc1nc2c(nc(O)n2[C@@H]2O[C@H](CO)[C@@H](O)[C@H]2O)c(=O)[nH]1 [8‐Hydroxyguanosine],14,4,
CC[C@@]1(O)C(=O)OCc2c1cc1n(c2=O)Cc2cc3c(N)cccc3nc2-1 [9‐Aminocamptothecin],0,2,
C=CCCCCCCCCC(=O)O [10‐Undecenoic acid],60,67,
C=C1CC[C@@H]2[C@](C)(CO)[C@H](O)CC[C@@]2(C)[C@@H]1CCC1=CCOC1=O [14-Deoxyandrographolide],1,28,
CC(C)=CCC[C@@H](C)CC=O [(R)-(+)-Citronellal],0,8,
CC[C@@]1(O)C(=O)OCc2c1cc1n(c2=O)Cc2cc3cc(O)ccc3nc2-1 [(S)‐10‐Hydroxycamptothecin],0,0,
Oc1cc(O)c2c(c1)O[C@@H](c1ccc(O)c(O)c1)[C@H](O)C2 [(‐)‐Catechin],8,9,
Oc1cc(O)c2c(c1)O[C@H](c1ccc(O)c(O)c1)[C@H](O)C2 [(‐)‐Epicatechin],1,23,
Oc1cc(O)c2c(c1)O[C@@H](c1cc(O)c(O)c(O)c1)[C@H](O)C2 [(‐)‐Gallocatechin],,,inhibition at 110 µM (C. elegans [1]; [5]): 43%; inhibition at 110 µM (C. elegans [1]; [6]): 5%
C/C=C1\[C@H]2C=C(C)C[C@]1(N)c1ccc(=O)[nH]c1C2 [(‐)‐Huperzine A],0,4,
O=C1C=C2C=C[C@@H]3C[C@@]2(O1)[C@H]1CCCCN31 [(‐)‐Securinine],0,12,
COc1c(-c2ccc3cc(NS(C)(=O)=O)ccc3c2)cc(-n2ccc(=O)[nH]c2=O)cc1C(C)(C)C [ABT‐333],40,0,
OB1OCc2cc(F)ccc21 [AN‐2690],0,12,
Nc1nc(NC2CC2)c2ncn([C@H]3C=C[C@@H](CO)C3)c2n1 [Abacavir],3,2,
CC1=CC(=O)CC(C)(C)[C@@]1(O)/C=C/C(C)=C\C(=O)O [Abscisic acid],0,11,
COc1ccc(-c2cc(=O)c3c(O)cc(O)cc3o2)cc1 [Acacetin],9,2,

Compound,inhibition at 110 µM (C. elegans [1]; [3]) [%],inhibition at 110 µM (C. elegans [1]; [4]) [%],also measured
Cn1c(=O)c2c(ncn2CC(=O)O)n(C)c1=O [Acefylline],0,1,
CC(=O)OCC1=CO[C@@H](OC(=O)CC(C)C)[C@H]2C1=C[C@H](OC(=O)CC(C)(C)OC(C)=O)[C@]21CO1 [Acevaltrate],,,inhibition at 110 µM (C. elegans [1]; [5]): 7%; inhibition at 110 µM (C. elegans [1]; [6]): 21%
CCN1C[C@]2(COC)[C@H](O)C[C@H](OC)[C@]34C1[C@H]([C@H](OC)[C@H]23)[C@]1(O)[C@H]2[C@@H](O)[C@](O)(C[C@H]24)[C@@H](OC)[C@@H]1O [Aconine],10,0,
Nc1nc2c(ncn2COCCO)c(=O)[nH]1 [Acyclovir],17,12,
CC(C)(C)C(=O)OCOP(=O)(COCCn1cnc2c(N)ncnc21)OCOC(=O)C(C)(C)C [Adefovir dipivoxil],28,14,
Nc1ncnc2[nH]cnc12 [Adenine],,,inhibition at 110 µM (C. elegans [1]; [5]): 0%; inhibition at 110 µM (C. elegans [1]; [6]): 3%
Nc1ncnc2c1ncn2[C@@H]1O[C@H](CO)[C@@H](O)[C@H]1O [Adenosine],0,9,
O=C(OCC1=C[C@@H](O)[C@@H]2C=CO[C@@H](O[C@@H]3O[C@H](CO)[C@@H](O)[C@H](O)[C@H]3O)[C@H]12)c1ccc(O)cc1 [Agnuside],2,15,
CCCSc1ccc2nc(NC(=O)OC)[nH]c2c1 [Albendazole],,,inhibition at 110 µM (C. elegans [1]; [5]): 17%; inhibition at 110 µM (C. elegans [1]; [6]): 6%
CC(C)C1=C[C@H]2[C@@H](CC[C@]2(C)O)[C@](C)(O)CC1 [Alismoxide],2,0,
C[C@H](C[C@H](O)[C@@H](O)C(C)(C)O)C1=C2C[C@H](O)[C@H]3[C@@]4(C)CCC(=O)C(C)(C)[C@@H]4CC[C@]3(C)[C@@]2(C)CC1 [Alisol A],3,2,
C[C@H](C[C@H](O)[C@H]1OC1(C)C)C1=C2C[C@H](O)[C@H]3[C@@]4(C)CCC(=O)C(C)(C)[C@@H]4CC[C@]3(C)[C@@]2(C)CC1 [Alisol B],,,inhibition at 110 µM (C. elegans [1]; [5]): 3%; inhibition at 110 µM (C. elegans [1]; [6]): 10%
NC(=O)NC1NC(=O)NC1=O (stereo not shown) [Allantoin],0,13,
COc1ccc2c(c1OC)CN(C)CCc1cc3c(cc1C(=O)C2)OCO3 [Allocryptopine],11,18,
O=c1cc(-c2ccc(O)c(-c3c(O)cc(O)c4c(=O)cc(-c5ccc(O)cc5)oc34)c2)oc2cc(O)cc(O)c12 [Amentoflavone],0,0,
Trigonelline (chloride),,,Percentage of motility inhibition 0 h (C. elegans [2]; 110 µM): 2%; Percentage of motility inhibition 24 h (C. elegans [2]; 110 µM): 17%
Tubeimoside I,,,Percentage of motility inhibition 0 h (C. elegans [2]; [7]): 3%; Percentage of motility inhibition 24 h (C. elegans [2]; [8]): 0%
Valepotriate,,,Percentage of motility inhibition 0 h (C. elegans [2]; [7]): 0%; Percentage of motility inhibition 24 h (C. elegans [2]; [8]): 7%
Vitamin B12,,,Percentage of motility inhibition 0 h (C. elegans [2]; [7]): 34%; Percentage of motility inhibition 24 h (C. elegans [2]; [8]): 0%
Vitamin K,,,Percentage of motility inhibition 0 h (C. elegans [2]; [7]): 0%; Percentage of motility inhibition 24 h (C. elegans [2]; [8]): 15%
Xanthopterin (hydrate),,,Percentage of motility inhibition 0 h (C. elegans [2]; [7]): 5%; Percentage of motility inhibition 24 h (C. elegans [2]; [8]): 0%
